Data: ChEMBL document CHEMBL1201862, “PubChem BioAssay data set” (2004)
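The compound was tested at five concentrations on cells cultured in 96-well plates, with a 48-hour exposure period. Here, GI50 denotes the concentration required for 50% inhibition of growth.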 The source made the active and inactive calls. No stated cut-off is given here; in the data, active = GI50 up to about 1.1 µM and inactive = higher.

Legend:
Test in all cases: inhibition of tumour cell growth, NCI panel, 48 h
[1] = system: T47D
[2] = system: CCRF-CEM
[3] = system: CAKI-1
[4] = system: NCI-H460
[5] = system: EKVX
[6] = system: SF-539
[7] = system: SN12C
[8] = system: HL-60
[9] = system: PC-3
[10] = system: A498
[11] = system: MDA-MB-231
[12] = system: IGROV-1
[13] = system: MDA-MB-435
[14] = system: SK-MEL-28
[15] = system: UO-31
[16] = system: M14
[17] = system: SR
[18] = system: SK-MEL-2
[19] = system: OVCAR-3
[20] = system: SF-295
[21] = system: SNB-19
[22] = system: K562
[23] = system: Hs-578T
[24] = system: UACC-257
[25] = system: 786-0
[26] = system: SW-620
[27] = system: NCI-H522
[28] = system: UACC-62
[29] = system: HT-29
[30] = system: NCI/ADR-RES
[31] = system: OVCAR-5
[32] = system: DU-145
[33] = system: HCT-116
[34] = system: TK-10
[35] = system: HCT-15
[36] = system: SK-MEL-5
[37] = system: BT-549
[38] = system: LOX IMVI
[39] = system: OVCAR-8
[40] = system: HOP-92
[41] = system: U-251
[42] = system: OVCAR-4
[43] = system: Malme-3M
[44] = system: MDA-N
[45] = system: ACHN
[46] = system: KM12
[47] = system: MOLT-4
[48] = system: COLO 205
[49] = system: NCI-H23
[50] = system: A549
[51] = system: RPMI-8226
[52] = system: HOP-62
[53] = system: RXF 393
[54] = system: SK-OV-3
[55] = system: SF-268
[56] = system: HCC 2998
[57] = system: NCI-H226
[58] = system: SNB-75
[59] = system: MCF7

Measured: GI50

COC(=O)c1ccc(S)c(S(=O)(=O)Nc2nc(N)n[nH]2)c1
inactive: [1] > 100000 nM | [2] > 100000 nM | [3] > 100000 nM | [4] > 100000 nM | [5] > 100000 nM | [6] > 100000 nM | [7] > 100000 nM | [8] > 100000 nM | [9] > 100000 nM | [10] > 100000 nM | [11] > 100000 nM | [12] > 100000 nM | [13] > 100000 nM | [14] > 100000 nM | [15] > 100000 nM | [16] > 100000 nM | [17] > 100000 nM | [18] > 100000 nM | [19] > 100000 nM | [20] > 100000 nM | [21] > 100000 nM | [22] > 100000 nM | [23] > 100000 nM | [24] > 100000 nM | [25] > 100000 nM | [26] > 100000 nM | [27] > 100000 nM | [28] > 100000 nM | [29] > 100000 nM | [30] > 100000 nM | [31] > 100000 nM | [32] > 100000 nM | [33] > 100000 nM | [34] > 100000 nM | [36] > 100000 nM | [37] > 100000 nM | [38] > 100000 nM | [39] > 100000 nM | [40] > 100000 nM | [41] > 100000 nM | [42] > 100000 nM | [43] > 100000 nM | [44] > 100000 nM | [45] > 100000 nM | [46] > 100000 nM | [47] > 100000 nM | [48] > 100000 nM | [49] > 100000 nM | [50] > 100000 nM | [51] > 100000 nM
> 100000 nM: [35]

CC(=O)O[C@H]1C[C@H](O[C@H]2[C@@H](O)C[C@H](O[C@H]3[C@@H](O)C[C@H](O[C@H]4CC[C@@]5(C)[C@H](CC[C@@H]6[C@@H]5CC[C@]5(C)[C@@H](C7=CC(=O)OC7)CC[C@]65O)C4)O[C@@H]3C)O[C@@H]2C)O[C@H](C)[C@H]1O[C@@H]1O[C@H](CO)[C@@H](O)[C@H](O)[C@H]1O
inactive: [47] > 100000 nM
23.1 nM: [35]
active: [1] 38.7 nM | [2] 26.9 nM | [3] < 10 nM | [4] < 10 nM | [5] < 14.8 nM | [6] < 14 nM | [7] 24.3 nM | [52] < 10 nM | [8] 14.9 nM | [9] 15.2 nM | [10] 26.9 nM | [11] 256 nM | [12] < 10 nM | [13] 34 nM | [14] 136 nM | [15] 24.2 nM | [16] 63.4 nM | [53] 28.8 nM | [18] 45.2 nM | [19] < 10 nM | [20] < 16.1 nM | [21] 65.8 nM | [54] 39.5 nM | [22] 81.5 nM | [23] < 10 nM | [55] < 12.5 nM | [24] 72.6 nM | [25] 16.2 nM | [26] 20.2 nM | [56] 61.5 nM | [57] 103 nM | [27] < 10 nM | [28] 132 nM | [29] 14.4 nM | [30] < 16.9 nM | [31] 34.2 nM | [32] < 10 nM | [33] < 10 nM | [34] 17.4 nM | [36] 23.7 nM | [37] < 16.7 nM | [38] < 15.9 nM | [58] 68.7 nM | [39] 27.5 nM | [40] 48 nM | [41] 32 nM | [59] 13 nM | [42] < 17.9 nM | [43] 27.8 nM | [44] 39.8 nM | [45] < 10 nM | [46] 65 nM | [48] 49.1 nM | [49] < 10 nM | [50] < 10 nM | [51] 37.3 nM
